Where a name gives a salt, the structure may show the parent alone. Read-outs that look alike come from different tables or passages of the source.
Tests used:
[1] = Oral bioavailability in mice, Method A; assay type: in vivo; conditions: CD-1 mice; for F: 10 mg/kg; for half-life / Cmax / AUC(0-inf): male, mouse
Experimental: Animals. Male CD-1 mice were used in these studies Animals were randomly assigned to treatment groups and were fasted for 4 h before dosing.
Drugs. Test compounds were dissolved in normal saline (ketamine) or de-ionized water (other compounds) and administered intravenously (iv) or orally (po) at a dose of 10 mg/kg (calculated based on freebase) and at a volume of 5 mL/kg body weight. Compounds were tested as the racemates (indicated by “rac” nomenclature) or pure enantiomers (indicated by “R” or “S” nomenclature).
Sample Collection and Bioanalysis. Blood samples were collected under 2,2,2-tribromoethanol anesthesia (150 mg/kg, ip) from the orbital sinus at 0.083, 0.25, 0.5, 1, 2, 4, 8 and 24 h (4 animals per time point) into microcontainers containing K2EDTA Immediately after collection of blood, mice were euthanized by cervical dislocation and brain samples were collected at the same time points. All samples were immediately processed, flash-frozen, and stored at −70° C. until subsequent analysis. Plasma samples were separated by centrifugation of whole blood and aliquots (50 μL) were mixed with 200 μL of internal standard solution (400 ng/mL in 1:1 v/v CH3CN:MeOH). After mixing by pipetting and centrifuging for 4 min at 6000 rpm, 0.5 μL of each supernatant was analyzed for drug using a fit-for-purpose liquid chromatography-tandem mass spectrometry (LC-MS/MS) method, with authentic samples of each analyte used for calibration and identification. Brain samples (weight 100 mg±1 mg) were dispersed in 500 μL, of internal standard solution (400 ng/mL in 4:1 v/v MeOH:water) using zirconium oxide beads (115 mg±5 mg) in The Bullet Blender® homogenizer for 30 s at speed 8. After homogenization, the samples were centrifuged for 4 min at 14,000 rpm and 0.5 μL of each supernatant was analyzed for drug using a fit-for-purpose LC-MS/MS method, with authentic samples of each analyte used for calibration and identification.
Data Analysis. The drug concentrations of samples below the lower limit of quantitation (LLOQ) were designated as zero. Pharmacokinetic data analysis was performed using noncompartmental, bolus injection or extravascular input analysis models in WinNonlin 5.2 (PharSight). Data points below LLOQ were presented as missing to improve validity of t112 calculations.

[2] = system: mice (conditioned place preference model of abuse liability); experiment: Conditioned place preference in mice; assay type: in vivo, C57BL/6 mice; conditions: s.c., 3 drug conditioning trials, relative to saline vehicle
Experimental: Animals. Male C57BL/6 mice, 5-8 weeks of age, (body weight 25-30 g; Envigo, Indianapolis, Ind., USA) were housed 5 per polycarbonate tub with soft bedding in a temperature- and humidity-controlled vivarium. Mice were maintained under a 12-h light/dark cycle with lights on at 06:00. Food and water were available ad libitum Animals acclimated to the vivarium 1 week prior to experimental manipulations.
Drugs and Drug Administration. Test compounds and saline vehicle were administered subcutaneously (s.c.), with doses calculated based on the HCl salt, while the positive control oxycodone was administered intraperitoneally (i.p.), with the dose calculated based on the HCl salt. Normal saline was used as the vehicle. […]
Conditioned Place Preference. Reward and/or aversion was assessed in conditioned place preference chambers (Model MED-CPP-3013; Med Associates, St. Albans, Vt.). […]
Group size was n=10 per treatment. […] Final drug preference is assessed in a 15-minute post-conditioning trial and is calculated by subtracting the time in the drug-paired compartment at baseline from the time in the drug-paired compartment post-conditioning, with positive values reflecting reward and negative values reflecting aversion.
For all trials, time spent in chambers as well as movement was quantified by infrared photobeam detectors and calculated by Med-PC IV software. […]

[3] = MLM stability (Low Activity); assay type: in vitro ADME, CD-1 mice; conditions: male, CD-1, mouse, liver microsomes, pH 7.4, Condition 1 (Low Activity), 0.50 mg protein/mL
Summary of the method: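 Pooled male CD-1 mouse liver microsomes (0.50 mg/mL) with 1 μM compound and 1 mM NADPH in 100 mM PBS pH 7.4 with 1 mM MgCl2, 37 °C, six time points over 60 min. Parent remaining by LC-MS/MS; kel, t1/2 and Clint from linear regression of ln(AUC) versus time.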

[4] = calculated based on brain exposure
[5] = brain, 10 mg/kg iv, read-out: t1/2 (iv)
[6] = brain, 10 mg/kg po, read-out: t1/2 (po)
[7] = plasma, 10 mg/kg iv, read-out: AUC0-inf (iv) (converted)
[8] = plasma, 10 mg/kg iv, read-out: t1/2 (iv)
[9] = plasma, 10 mg/kg po, read-out: AUC0-inf (po) (converted)
[10] = plasma, 10 mg/kg po, read-out: t1/2 (po)
[11] = plasma, absolute oral bioavailability

| SMILES | AUC0-inf (iv) ([1]; brain, 10 mg/kg iv) | AUC0-inf (po) ([1]; brain, 10 mg/kg po) | F [1, 4] [%] | half-life [1, 5] [h] | Cmax ([1]; brain, 10 mg/kg po) [ng/g] | half-life [1, 6] [h] | AUC(0-inf) [1, 7] [ng·h/mL] | half-life [1, 8] [h] | Cmax ([1]; plasma, 10 mg/kg po) [ng/mL] | AUC(0-inf) [1, 9] [ng·h/mL] | half-life [1, 10] [h] | F [1, 11] [%] | conditioned place preference (abuse liability) [2] | half-life at 1 μM [3] [h] | microsomal CLint at 1 μM [3] [µL/min/mg] |
| --- | --- | --- | --- | --- | --- | --- | --- | --- | --- | --- | --- | --- | --- | --- | --- |
| CN[C@]1(c2ccccc2)CCCCC1=O [Compound 14S, (S)-2-(methylamino)-2-phenylcyclohexan-1-one] | 507,000 ng*min/g | 166,000 ng*min/g | 33 | 2.12 | 3480 | 1.73 | 2180 | 2.37 | 951 | 993 | 2.93 | 45.5 | dose-dependent and significant preference | – | – |
| CN[C@@]1(c2ccccc2)CCCCC1=O [Compound 14R, (R)-2-(methylamino)-2-phenylcyclohexan-1-one] | 548,000 ng*min/g | 192,000 ng*min/g | 35 | 11.9 | 3640 | 0.735 | 3520 | 1.18 | 1700 | 1410 | 0.922 | 40 | neither preference nor aversion | – | – |
| Cc1ccccc1[C@@]1(N)CCCCC1=O [Compound 114S, (S)-2-amino-2-(o-tolyl)cyclohexan-1-one] | – | – | – | – | – | – | – | – | – | – | – | – | – | 1.35 | 17.1 |
| CNC1(c2ccccc2)CCCCC1=O (racemic) [Compound 14rac, 2-(methylamino)-2-phenylcyclohexan-1-one hydrochloride] | 457,000 ng*min/g | 192,000 ng*min/g | 42 | 0.468 | 3150 | 0.657 | 1930 | 0.562 | 930 | 920 | 0.705 | 48 | – | – | – |
| N[C@]1(c2ccccc2)CCCCC1=O [Compound 11S, (S)-2-amino-2-phenyl-cyclohexan-1-one] | – | – | – | – | – | – | – | – | – | – | – | – | – | > 2.42 | < 9.6 |
| CNC1(c2ccccc2Cl)CCCCC1=O (racemic) [rac-ketamine, racemic ketamine, reference compound] | 97,000 ng*min/g | 6,030 ng*min/g | 6.2 | – | – | – | – | – | – | – | – | 15 | – | – | – |
| Cc1ccccc1[C@]1(N)CCCCC1=O [Compound 114R, (R)-2-amino-2-(o-tolyl)cyclohexan-1-one] | – | – | – | – | – | – | – | – | – | – | – | – | – | 0.728 | 31.7 |
| N[C@@]1(c2ccccc2)CCCCC1=O [Compound 11R, (R)-2-amino-2-phenyl-cyclohexan-1-one] | – | – | – | – | – | – | – | – | – | – | – | – | – | > 2.42 | < 9.6 |

Source: US11344510B2, “Arylcyclohexylamine derivatives and their use in the treatment of psychiatric disorders” (Gilgamesh Pharmaceuticals, Inc., priority 2019, dated 2022)
